{"source": "patent US5489612A", "about": "“Calixarene chloride-channel blockers” (The University of Alabama at Birmingham Research Foundation, priority 1994, dated 1996)", "tested_on": "colonic secretory chloride channel", "test": "Single chloride channels from rat colonic enterocyte plasma membrane vesicles incorporated into planar lipid bilayers; calixarene added to the cis (outer membrane) side", "format": "biochemical", "details": "for MAXIMUM BLOCK PERIODS (block of channel): UPTO 100 μM; for duration of the block periods: increases with size n of p-sulfonatocalix[n]arene; for MAXIMUM BLOCK PERIODS: single channel in PE:PS 7:3 planar bilayer", "description": "In accordance with the methodology of Reinhardt et al., \"Properties of an Anion-selective Channel from Rat Colonic Enterocyte Plasma Membranes Reconstituted into Planar Phospholipid Bilayers\", J. Membrane Biol. 95: 47-54, 1987, calixarene derivatives were tested on single chloride channels incorporated into planar lipid bilayers. Plasma membrane vesicles derived from rat colonic enterocytes were used as a source of chloride channels. Properties of the colonic secretory chloride channel include one dominant open-state conductance, an outwardly rectified current-voltage relation with a zero voltage slope conductance of 50 pS in 150 mM Cl, a Cl to Na selectivity of at least 10:1, and a halide selectivity of I>Br>CI>F. Patch-clamp studies of several chloride secreting epithelia have identified an apical membrane chloride channel with identical biophysical properties. This channel is activated by CAMP and Ca mediated agonists and thus is considered a secretory chloride channel.\nChloride channels were incorporated into planar lipid bilayers of phosphatidylethanolamine and phosphatidylserine (PE:PS, 7:3) and data recorded according to known test methodology. See, Bridges et al., \"Stilbene Disulfonate Blockade of Colonic Secretory Cl^- Channels in Planar Lipid Bilayers\", Am. J. Physiol. 256 (Cell Physiol. 25): C902-C912, 1989. See also, Reinhardt et al. and Singh et al., supra.\nOnce a chloride channel was incorporated into the bilayer, baseline (control) channel activity was recorded for 5-15 minutes. The calixarenes were then added to the cis or outer membrane side of the channel and the channel activity recorded for an additional 5-15 minutes at each concentration. Because each channel serves as its own control, calixarene effects could be uniquely identified. In some experiments the cis compartment was exchanged with calixarene-free solution to test the reversibility of the calixarene-induced effects. Single channel records were stored on video tape and quantitatively evaluated by computer assisted analysis.", "key": {"[1]": {"details": "single channel in planar bilayer, Table 1, read-out: Ki (concentration causing a half-maximal inhibition)"}}, "note": "Read-outs that look alike come from different tables or passages of the source."}
{"molecule": "Oc1c2cccc1Cc1cccc(c1O)Cc1cccc(c1O)Cc1cccc(c1O)C2", "note": "[CALIX[4]ARENE, Calix[4]arene, reference compound]", "values": [{"measurement": "MAXIMUM BLOCK PERIODS (block of channel)", "result": "NO BLOCK"}, {"measurement": "blocking the chloride channel", "setting": "even at a concentration as high as 100 μM", "result": "completely ineffective"}]}
{"molecule": "COc1c2cccc1Cc1cccc(c1OC)Cc1cccc(c1OC)Cc1cccc(c1OC)C2", "note": "[25,26,27,28-TETRAMETHOXY-CALIX[4]ARENE, reference compound]", "values": [{"measurement": "MAXIMUM BLOCK PERIODS (block of channel)", "result": "NO BLOCK"}]}
{"molecule": "O=S(=O)(O)c1cc2c(O)c(c1)Cc1cc(S(=O)(=O)O)cc(c1O)Cc1cc(S(=O)(=O)O)cc(c1O)Cc1cc(S(=O)(=O)O)cc(c1O)Cc1cc(S(=O)(=O)O)cc(c1O)Cc1cc(S(=O)(=O)O)cc(c1O)C2", "note": "[5,11,17,23,29,35-hexasulfonatocalix[6]arene]", "values": [{"measurement": "duration of the block periods", "result": "30 to 40", "unit": "s"}, {"measurement": "MAXIMUM BLOCK PERIODS", "setting": "Table 1", "result": "30 to 40", "unit": "s"}, {"measurement": "Ki", "setting": "[1]", "result": "400 to 500", "unit": "nM"}]}
{"molecule": "COc1c2cc(S(=O)(=O)O)cc1Cc1cc(S(=O)(=O)O)cc(c1OC)Cc1cc(S(=O)(=O)O)cc(c1OC)Cc1cc(S(=O)(=O)O)cc(c1OC)C2", "note": "[5,11,17,23-tetrasulfonato-25,26,27,28-tetramethoxy-calix[4]arene]", "values": [{"measurement": "long-lived block periods, duration", "setting": "at a concentration as low as 3 nM", "result": "several hundred"}, {"measurement": "K1 (suggested from brief open periods between long blocks)", "setting": "estimate", "result": "subnanomolar"}, {"measurement": "MAXIMUM BLOCK PERIODS", "setting": "Table 1", "result": "> 100", "unit": "s"}, {"measurement": "Ki", "setting": "[1]", "result": "< 3", "unit": "nM"}]}
{"molecule": "O=S(=O)(O)c1cc2c(O)c(c1)Cc1cc(S(=O)(=O)O)cc(c1O)Cc1cc(S(=O)(=O)O)cc(c1O)Cc1cc(S(=O)(=O)O)cc(c1O)Cc1cc(S(=O)(=O)O)cc(c1O)Cc1cc(S(=O)(=O)O)cc(c1O)Cc1cc(S(=O)(=O)O)cc(c1O)Cc1cc(S(=O)(=O)O)cc(c1O)C2", "note": "[5,11,17,23,29,35,41,47-octasulfonatocalix[8]arene]", "values": [{"measurement": "duration of the block periods", "result": "> 100", "unit": "s"}, {"measurement": "MAXIMUM BLOCK PERIODS", "setting": "Table 1", "result": "> 100", "unit": "s"}, {"measurement": "Ki", "setting": "[1]", "result": "< 50", "unit": "nM"}]}
{"molecule": "O=S(=O)(O)c1cc2c(O)c(c1)Cc1cc(S(=O)(=O)O)cc(c1O)Cc1cc(S(=O)(=O)O)cc(c1O)Cc1cc(S(=O)(=O)O)cc(c1O)C2", "note": "[5,11,17,23-TETRASULFONATO-CALIX[4]ARENE, 5,11,17,23-tetrasulfonato-calix[4]arene]", "values": [{"measurement": "duration of the block periods", "result": "3 to 4", "unit": "s"}, {"measurement": "Ki", "setting": "read-out: concentration causing a half maximal decrease (K1) in Po (percent time channel in open state)", "result": "< 1000", "unit": "nM"}, {"measurement": "MAXIMUM BLOCK PERIODS", "setting": "Table 1", "result": "3 to 4", "unit": "s"}, {"measurement": "Ki", "setting": "[1]", "result": "800 to 900", "unit": "nM"}]}
